In US20250114374A1, “BCL-2 INHIBITORS” (Newave Pharmaceutical Inc., priority 2021, published 2025):
Structures can show the parent of a compound that is named as a salt.

Tested on: RS4; 11 with G101V mutation
Experiment: In vitro anti-proliferation assay (ATPlite luminescence) in BCL-2-dependent ALL cell line RS4;11 with G101V mutation
Type: cell-based
Conditions: cellular anti-proliferative IC50, about 72 hours, medium with 10% FBS, ATPlite; read-out: RS411-G101V IC50
Description: Cell antiproliferation was assayed by PerkinElmer ATPlite™ Luminescence Assay System. Briefly, the various test cancer cell lines were plated at a density of about 1×10^4 cells per well in Costar 96-well plates, and were incubated with different concentrations of compounds for about 72 hours in medium supplemented with 10% FBS. One lyophilized substrate solution vial was then reconstituted by adding 5 mL of substrate buffer solution, and was agitated gently until the solution was homogeneous. About 50 μL of mammalian cell lysis solution was added to 100 μL of cell suspension per well of a microplate, and the plate was shaken for about five minutes in an orbital shaker at ˜700 rpm. This procedure was used to lyse the cells and to stabilize the ATP. Next, 50 μL substrate solution was added to the wells and microplate was shaken for five minutes in an orbital shaker at ˜700 rpm. Finally, the luminescence was measured by a PerkinElmer TopCount® Microplate Scintillation Counter. Such assays, carried out with a range of doses of test compounds, allowed the determination of the cellular anti-antiproliferative IC50 of the compounds of the present invention.
The following table lists the IC50 values of another study for certain compounds of the invention.

| Compound | IC50 [nM] |
| --- | --- |
| 4-(2-((R)-2-(2-isopropoxyphenyl)-4-((S)-tetrahydro-2H-pyran-3-yl)piperazin-1-yl)-7-azaspiro[3.5]nonan-7-yl)-N-(((R)-5-nitro-3-(tetrahydro-2H-pyran-4-yl)-3,4-dihydro-2H-benzo[b][1,4]oxazin-7-yl)sulfonyl)-2-((5aS,9aR)-6,7,9,9a-tetrahydro-1H-pyrano[3,4-b]pyrrolo[3′,2′:5,6]pyrido[3,2-e][1,4]oxazin-5(5aH)-yl)benzamide [Example 208] | 72.7 |
| COc1ccc(CN2CCN(C3CC4(CCN(c5ccc(C(=O)NS(=O)(=O)c6ccc(NC[C@H]7CC[C@](C)(O)CC7)c([N+](=O)[O-])c6)c(N6c7cc8cc[nH]c8nc7O[C@H]7COCC[C@@H]76)c5)CC4)C3)[C@@H](c3ccccc3OC(C)C)C2)cc1 [Example 99, 2-[(3R,8S)-2,5-dioxa-9,15,17-triazatetracyclo[8.7.0.0^{3,8}.0^{12,16}]heptadeca-1(10),11,13,16-tetraen-9-yl]-4-{2-[(2S)-2-(2-isopropoxyphenyl)-4-[(4-methoxyphenyl)methyl]piperazin-1-yl]-7-azaspiro[3.5]nonan-7-yl}-N-[3-nitro-4-({[(1r,4r)-4-hydroxy-4-methylcyclohexyl]methyl}amino)benzenesulfonyl]benzamide] | 38.5 |
| CC(C)Oc1ccccc1[C@H]1CN(Cc2ccc(N3CCOCC3)nc2)CCN1C1CC2(CCN(c3ccc(C(=O)NS(=O)(=O)c4ccc(NCC5CCC(C)(O)CC5)c([N+](=O)[O-])c4)c(N4c5cc6cc[nH]c6nc5O[C@H]5COCC[C@@H]54)c3)CC2)C1 (stereo partly drawn) [Example 100, 2-[(3R,8S)-2,5-dioxa-9,15,17-triazatetracyclo[8.7.0.0^{3,8}.0^{12,16}]heptadeca-1(10),11,13,16-tetraen-9-yl]-4-{2-[(2S)-2-(2-isopropoxyphenyl)-4-{[6-(morpholin-4-yl)pyridin-3-yl]methyl}piperazin-1-yl]-7-azaspiro[3.5]nonan-7-yl}-N-[3-nitro-4-({[(1r,4r)-4-hydroxy-4-methylcyclohexyl]methyl}amino)benzenesulfonyl]benzamide] | 16.1 |
| COc1cc(CN2CCN(C3CC4(CCN(c5ccc(C(=O)NS(=O)(=O)c6ccc(NCC7CCC(C)(O)CC7)c([N+](=O)[O-])c6)c(N6c7cc8cc[nH]c8nc7O[C@H]7COCC[C@@H]76)c5)CC4)C3)[C@@H](c3ccccc3OC(C)C)C2)cnc1N1CCOCC1 (stereo partly drawn) [Example 101, N-((4-((((1r,4r)-4-hydroxy-4-methylcyclohexyl)methyl)amino)-3-nitrophenyl)sulfonyl)-4-(2-((S)-2-(2-isopropoxyphenyl)-4-((5-methoxy-6-morpholinopyridin-3-yl)methyl)piperazin-1-yl)-7-azaspiro[3.5]nonan-7-yl)-2-((5aS,9aR)-6,7,9,9a-tetrahydro-1H-pyrano[3,4-b]pyrrolo[3′,2′:5,6]pyrido[3,2-e][1,4]oxazin-5(5aH)-yl)benzamide] | 12.9 |
| COc1ccc(CN2CCN(C3CC4(CCN(c5ccc(C(=O)NS(=O)(=O)c6ccc(NCC7CCC(C)(O)CC7)c([N+](=O)[O-])c6)c(N6c7cc8cc[nH]c8nc7O[C@H]7COCC[C@@H]76)c5)CC4)C3)[C@@H](c3ccccc3OC(C)C)C2)cn1 (stereo partly drawn) [Example 102, 2-[(3R,8S)-2,5-dioxa-9,15,17-triazatetracyclo[8.7.0.0^{3,8}.0^{12,16}]heptadeca-1(10),11,13,16-tetraen-9-yl]-4-{2-[(2S)-2-(2-isopropoxyphenyl)-4-[(6-methoxypyridin-3-yl)methyl]piperazin-1-yl]-7-azaspiro[3.5]nonan-7-yl}-N-[3-nitro-4-({[(1r,4r)-4-hydroxy-4-methylcyclohexyl]methyl}amino)benzenesulfonyl]benzamide] | 18 |
| COc1ccc(CN2CCN(C3CC4(CCN(c5ccc(C(=O)NS(=O)(=O)c6ccc(NCC7CCC(C)(O)CC7)c([N+](=O)[O-])c6)c(N6c7cc8cc[nH]c8nc7O[C@H]7COCC[C@@H]76)c5)CC4)C3)[C@@H](c3ccccc3OC(C)C)C2)nc1 (stereo partly drawn) [Example 103, 2-[(3R,8S)-2,5-dioxa-9,15,17-triazatetracyclo[8.7.0.0^{3,8}.0^{12,16}]heptadeca-1(10),11,13,16-tetraen-9-yl]-4-{2-[(2S)-2-(2-isopropoxyphenyl)-4-[(5-methoxypyridin-2-yl)methyl]piperazin-1-yl]-7-azaspiro[3.5]nonan-7-yl}-N-[3-nitro-4-({[(1r,4r)-4-hydroxy-4-methylcyclohexyl]methyl}amino)benzenesulfonyl]benzamide] | 35.1 |
| COc1cc(CN2CCN(C3CC4(CCN(c5ccc(C(=O)NS(=O)(=O)c6ccc(NCC7CCC(C)(O)CC7)c([N+](=O)[O-])c6)c(N6c7cc8cc[nH]c8nc7O[C@H]7COCC[C@@H]76)c5)CC4)C3)[C@@H](c3ccccc3OC(C)C)C2)cnc1OC (stereo partly drawn) [Example 104, 4-{2-[(2S)-4-[(5,6-dimethoxypyridin-3-yl)methyl]-2-(2-isopropoxyphenyl)piperazin-1-yl]-7-azaspiro[3.5]nonan-7-yl}-2-[(3R,8S)-2,5-dioxa-9,15,17-triazatetracyclo[8.7.0.0^{3,8}.0^{12,16}]heptadeca-1(10),11,13,16-tetraen-9-yl]-N-[3-nitro-4-({[(1r,4r)-4-hydroxy-4-methylcyclohexyl]methyl}amino)benzenesulfonyl]benzamide] | 6.9 |
| COc1ccc(CN2CCN(C3CC4(CCN(c5ccc(C(=O)NS(=O)(=O)c6ccc(NC[C@H]7CC[C@](C)(O)CC7)c([N+](=O)[O-])c6)c(N6c7cc8cc[nH]c8nc7O[C@H]7COCC[C@@H]76)c5)CC4)C3)[C@@H](c3ccccc3OC(C)C)C2)nc1OC [Example 105, 4-{2-[(2S)-4-[(5,6-dimethoxypyridin-2-yl)methyl]-2-(2-isopropoxyphenyl)piperazin-1-yl]-7-azaspiro[3.5]nonan-7-yl}-2-[(3R,8S)-2,5-dioxa-9,15,17-triazatetracyclo[8.7.0.0^{3,8}.0^{12,16}]heptadeca-1(10),11,13,16-tetraen-9-yl]-N-[3-nitro-4-({[(1r,4r)-4-hydroxy-4-methylcyclohexyl]methyl}amino)benzenesulfonyl]benzamide] | 19.3 |
| COc1nc(CN2CCN(C3CC4(CCN(c5ccc(C(=O)NS(=O)(=O)c6ccc(NCC7CCC(C)(O)CC7)c([N+](=O)[O-])c6)c(N6c7cc8cc[nH]c8nc7O[C@H]7COCC[C@@H]76)c5)CC4)C3)[C@@H](c3ccccc3OC(C)C)C2)ccc1C (stereo partly drawn) [Example 106, 2-[(3R,8S)-2,5-dioxa-9,15,17-triazatetracyclo[8.7.0.0^{3,8}.0^{12,16}]heptadeca-1(10),11,13,16-tetraen-9-yl]-4-{2-[(2S)-2-(2-isopropoxyphenyl)-4-[(6-methoxy-5-methylpyridin-2-yl)methyl]piperazin-1-yl]-7-azaspiro[3.5]nonan-7-yl}-N-[3-nitro-4-({[(1r,4r)-4-hydroxy-4-methylcyclohexyl]methyl}amino)benzenesulfonyl]benzamide] | 32.9 |
| CC(C)Oc1ccccc1[C@H]1CN(C2CCC(C)(O)CC2)CCN1C1CC2(CCN(c3ccc(C(=O)NS(=O)(=O)c4ccc(NCC5CCC(C)(O)CC5)c([N+](=O)[O-])c4)c(N4c5cc6cc[nH]c6nc5O[C@H]5COCC[C@@H]54)c3)CC2)C1 (stereo partly drawn) [Example 108, 2-[(3R,8S)-2,5-dioxa-9,15,17-triazatetracyclo[8.7.0.0^{3,8}.0^{12,16}]heptadeca-1(10),11,13,16-tetraen-9-yl]-4-{2-[(2S)-2-(2-isopropoxyphenyl)-4-[(1r,4r)-4-hydroxy-4-methylcyclohexyl]piperazin-1-yl]-7-azaspiro[3.5]nonan-7-yl}-N-[3-nitro-4-({[(1r,4r)-4-hydroxy-4-methylcyclohexyl]methyl}amino)benzenesulfonyl]benzamide] | 7.2 |
| CC(C)Oc1ccccc1[C@H]1CN(C2CCC(C)(O)CC2)CCN1C1CC2(CCN(c3ccc(C(=O)NS(=O)(=O)c4ccc(NCC5CCC(C)(O)CC5)c([N+](=O)[O-])c4)c(N4c5cc6cc[nH]c6nc5O[C@H]5COCC[C@@H]54)c3)CC2)C1 (stereo partly drawn) [Example 109, 2-[(3R,8S)-2,5-dioxa-9,15,17-triazatetracyclo[8.7.0.0^{3,8}.0^{12,16}]heptadeca-1(10),11,13,16-tetraen-9-yl]-4-{2-[(2S)-2-(2-isopropoxyphenyl)-4-[(1s,4s)-4-hydroxy-4-methylcyclohexyl]piperazin-1-yl]-7-azaspiro[3.5]nonan-7-yl}-N-[3-nitro-4-({[(1r,4r)-4-hydroxy-4-methylcyclohexyl]methyl}amino)benzenesulfonyl]benzamide] | 17.2 |
| COc1nc(CN2CCN(C3CC4(CCN(c5ccc(C(=O)NS(=O)(=O)c6ccc(NCC7CCC(C)(O)CC7)c([N+](=O)[O-])c6)c(N6c7cc8cc[nH]c8nc7O[C@H]7COCC[C@@H]76)c5)CC4)C3)[C@@H](c3ccccc3OC(C)C)C2)cc2c1OCCC2(C)C (stereo partly drawn) [Example 110, 2-[(3R,8S)-2,5-dioxa-9,15,17-triazatetracyclo[8.7.0.0^{3,8}.0^{12,16}]heptadeca-1(10),11,13,16-tetraen-9-yl]-4-{2-[(2S)-2-(2-isopropoxyphenyl)-4-({8-methoxy-4,4-dimethyl-2H,3H-pyrano[2,3-c]pyridin-6-yl}methyl)piperazin-1-yl]-7-azaspiro[3.5]nonan-7-yl}-N-[3-nitro-4-({[(1r,4r)-4-hydroxy-4-methylcyclohexyl]methyl}amino)benzenesulfonyl]benzamide hydrochloride] | 23.8 |
